System: 435261-313-R-J1-PDC tumor spheroid viability
Assay: Anticancer human tumor 435261-313-R-J1-PDC patient-derived colon adenocarcinoma cell line growth inhibition [PI3K]
Conditions: spheroids with HUVEC and MSC; for IC50: curve of first compound; for viability, T/C: stronger effect = lower value
Method in brief: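 Targeted small molecules plus PI3K inhibitors, half-log dose series from Cmax (default top 10 microM), were applied to heterotypic spheroids of cancer cells with HUVEC and MSCs. Viability indicated growth inhibition.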

[1] = second compound 0.0316 µM, first compound 0.0316 µM
[2] = second compound 0.0316 µM, first compound 0.1 µM
[3] = second compound 0.0316 µM, first compound 0.316 µM
[4] = second compound 0.0316 µM, first compound 1 µM
[5] = second compound 0.1 µM, first compound 0.0316 µM
[6] = second compound 0.1 µM, first compound 0.1 µM
[7] = second compound 0.1 µM, first compound 0.316 µM
[8] = second compound 0.1 µM, first compound 1 µM
[9] = second compound 0.316 µM, first compound 0.0316 µM
[10] = second compound 0.316 µM, first compound 0.1 µM
[11] = second compound 0.316 µM, first compound 0.316 µM
[12] = second compound 0.316 µM, first compound 1 µM
[13] = second compound 1 µM, first compound 0.0316 µM
[14] = second compound 1 µM, first compound 0.1 µM
[15] = second compound 1 µM, first compound 0.316 µM
[16] = second compound 1 µM, first compound 1 µM
[17] = second compound 3.16 µM, first compound 0.0316 µM
[18] = second compound 3.16 µM, first compound 0.1 µM
[19] = second compound 3.16 µM, first compound 0.316 µM
[20] = second compound 3.16 µM, first compound 1 µM
[21] = second compound 10 µM, first compound 0.0316 µM
[22] = second compound 10 µM, first compound 0.1 µM
[23] = second compound 10 µM, first compound 0.316 µM
[24] = second compound 10 µM, first compound 1 µM
[25] = second compound 0.0316 µM, first compound 3.16 µM
[26] = second compound 0.0316 µM, first compound 10 µM
[27] = second compound 0.1 µM, first compound 3.16 µM
[28] = second compound 0.1 µM, first compound 10 µM
[29] = second compound 0.316 µM, first compound 3.16 µM
[30] = second compound 0.316 µM, first compound 10 µM
[31] = second compound 1 µM, first compound 3.16 µM
[32] = second compound 1 µM, first compound 10 µM
[33] = second compound 3.16 µM, first compound 3.16 µM
[34] = second compound 3.16 µM, first compound 10 µM
[35] = second compound 10 µM, first compound 3.16 µM
[36] = second compound 10 µM, first compound 10 µM
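Further: spheroids exposed to compounds for 7 days.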

With `CCN1CCN(Cc2ccc(Nc3ncc(F)c(-c4cc(F)c5nc(C)n(C(C)C)c5c4)n3)nc2)CC1` + CC(Nc1ncnc2nc[nH]c12)c1cc2cccc(Cl)c2c(=O)n1-c1ccccc1 the IC50 (second compound 0.0316 µM) was > 1 µM, the IC50 (second compound 0.1 µM) was > 1 µM and the IC50 (second compound 0.316 µM) was > 1 µM. For the same compound, the IC50 (second compound 1 µM) was 0.222 µM, the IC50 (second compound 3.16 µM) was 0.0208 µM and the IC50 (second compound 10 µM) was < 0.00316 µM. It also gave a viability, T/C (second compound 0.0316 µM, first compound 0.00316 µM) of 97.8%, a viability, T/C (second compound 0.0316 µM, first compound 0.01 µM) of 81.8% and a viability, T/C [1] of 63.5%. It also gave a viability, T/C [2] of 60.1%, a viability, T/C [3] of 54.7% and a viability, T/C [4] of 51.6%. The viability, T/C (second compound 0.1 µM, first compound 0.00316 µM) was 73.2%, the viability, T/C (second compound 0.1 µM, first compound 0.01 µM) was 82.4% and the viability, T/C [5] was 99.5%. The viability, T/C [6] was 54.3%, the viability, T/C [7] was 48.6% and the viability, T/C [8] was 60.4%. It also gave a viability, T/C (second compound 0.316 µM, first compound 0.00316 µM) of 99.1%, a viability, T/C (second compound 0.316 µM, first compound 0.01 µM) of 110% and a viability, T/C [9] of 74.2%. The viability, T/C [10] was 61.9%, the viability, T/C [11] was 46.6% and the viability, T/C [12] was 54.5%. The viability, T/C (second compound 1 µM, first compound 0.00316 µM) was 96%, the viability, T/C (second compound 1 µM, first compound 0.01 µM) was 85.3% and the viability, T/C [13] was 59.7%. For the same compound, the viability, T/C [14] was 50.3%, the viability, T/C [15] was 44.9% and the viability, T/C [16] was 54.6%. It also gave a viability, T/C (second compound 3.16 µM, first compound 0.00316 µM) of 92.2%, a viability, T/C (second compound 3.16 µM, first compound 0.01 µM) of 62% and a viability, T/C [17] of 43.9%. It also gave a viability, T/C [18] of 36.1%, a viability, T/C [19] of 42.1% and a viability, T/C [20] of 37.7%. For the same compound, the viability, T/C (second compound 10 µM, first compound 0.00316 µM) was 43.8%, the viability, T/C (second compound 10 µM, first compound 0.01 µM) was 42.4% and the viability, T/C [21] was 32.5%. It also gave a viability, T/C [22] of 30.7%, a viability, T/C [23] of 30.4% and a viability, T/C [24] of 34.6%.

`Cn1ncc(Cl)c1-c1cc(C(=O)NC(CN)Cc2cccc(F)c2)sc1Cl` (stereo unspecified) + CC(Nc1ncnc2nc[nH]c12)c1cc2cccc(Cl)c2c(=O)n1-c1ccccc1 gave an IC50 (second compound 0.0316 µM) of 1.4 µM, an IC50 (second compound 0.1 µM) of 0.527 µM and an IC50 (second compound 0.316 µM) of 0.565 µM. It also gave an IC50 (second compound 1 µM) of 0.863 µM, an IC50 (second compound 3.16 µM) of 0.679 µM and an IC50 (second compound 10 µM) of 0.155 µM. It also gave a viability, T/C [1] of 95.1%, a viability, T/C [2] of 74.4% and a viability, T/C [3] of 75.1%. It also gave a viability, T/C [4] of 63.1%, a viability, T/C [25] of 27.8% and a viability, T/C [26] of 14.2%. It also gave a viability, T/C [5] of 86.6%, a viability, T/C [6] of 96.7% and a viability, T/C [7] of 50%. The viability, T/C [8] was 39.9%, the viability, T/C [27] was 23.9% and the viability, T/C [28] was 9.05%. It also gave a viability, T/C [9] of 106%, a viability, T/C [10] of 58.1% and a viability, T/C [11] of 87.8%. For the same compound, the viability, T/C [12] was 26.8%, the viability, T/C [29] was 22.5% and the viability, T/C [30] was 10.6%. The viability, T/C [13] was 94.7%, the viability, T/C [14] was 82.9% and the viability, T/C [15] was 70.8%. The viability, T/C [16] was 47.7%, the viability, T/C [31] was 25.6% and the viability, T/C [32] was 15.7%. For the same compound, the viability, T/C [17] was 87.3%, the viability, T/C [18] was 81.8% and the viability, T/C [19] was 66.8%. The viability, T/C [20] was 40.5%, the viability, T/C [33] was 21.9% and the viability, T/C [34] was 9.23%. It also gave a viability, T/C [21] of 62.1%, a viability, T/C [22] of 62.8% and a viability, T/C [23] of 35%. It also gave a viability, T/C [24] of 27.5%, a viability, T/C [35] of 22.1% and a viability, T/C [36] of 6.29%.

`Cn1nccc1Nc1nccc(-c2ccn(C(CO)c3ccc(Cl)c(F)c3)c(=O)c2)n1` (stereo unspecified) + CC(Nc1ncnc2nc[nH]c12)c1cc2cccc(Cl)c2c(=O)n1-c1ccccc1 showed an IC50 (second compound 0.0316 µM) of 0.737 µM, an IC50 (second compound 0.1 µM) of 0.416 µM and an IC50 (second compound 0.316 µM) of 0.362 µM. The IC50 (second compound 1 µM) was 0.424 µM, the IC50 (second compound 3.16 µM) was 0.254 µM and the IC50 (second compound 10 µM) was 0.0685 µM. For the same compound, the viability, T/C [1] was 83.5%, the viability, T/C [2] was 64.9% and the viability, T/C [3] was 84%. It also gave a viability, T/C [4] of 40.1%, a viability, T/C [25] of 28.7% and a viability, T/C [26] of 24.9%. The viability, T/C [5] was 75.4%, the viability, T/C [6] was 73.4% and the viability, T/C [7] was 46.5%. The viability, T/C [8] was 43.6%, the viability, T/C [27] was 25.8% and the viability, T/C [28] was 20.6%. For the same compound, the viability, T/C [9] was 77.9%, the viability, T/C [10] was 62.7% and the viability, T/C [11] was 53.6%. The viability, T/C [12] was 38%, the viability, T/C [29] was 28.4% and the viability, T/C [30] was 19.5%. For the same compound, the viability, T/C [13] was 71.5%, the viability, T/C [14] was 66.9% and the viability, T/C [15] was 46.3%. For the same compound, the viability, T/C [16] was 48.1%, the viability, T/C [31] was 26% and the viability, T/C [32] was 19.2%. For the same compound, the viability, T/C [17] was 77.1%, the viability, T/C [18] was 67.7% and the viability, T/C [19] was 42.1%. It also gave a viability, T/C [20] of 32.8%, a viability, T/C [33] of 23.5% and a viability, T/C [34] of 12.6%. The viability, T/C [21] was 58.1%, the viability, T/C [22] was 46.8% and the viability, T/C [23] was 28.8%. It also gave a viability, T/C [24] of 18.3%, a viability, T/C [35] of 16.7% and a viability, T/C [36] of 9.7%.

— PubChem BioAssay AID1963976 (Molecular Pharmacology Branch, DTP, NCI, 2024)
